Measurements published in PubChem BioAssay (NCI).
Where “and” joins values, the source holds several entries; their conditions need not be identical. Equal entries are not always repeated.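 In this assay, cells in 96-well plates receive the compound at five concentrations for 48 hours. Endpoints are linearly interpolated between the surrounding concentrations. GI50 marks 50% less growth. At the TGI there is no net growth.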 *1 amine or outer side, *2 acyl side, *3 side chain or, on linkers, in order; H or OH if unused. Where a SMILES comes first, the peptide text is derived from it. [ ]: non-standard residue; d: D form. X56 = CC[C@H](C)[C@H](OC(=O)[C@@H](C)[C@@H](CC)N[*:1])C(=O)[*:2]; X32 = C[C@H](N[*:1])C(=O)C(C)(C)C(=O)[*:2]; NMeY = CN[C@@H](Cc1ccc(O)cc1)C(=O)O; NMeL = CN[C@@H](CC(C)C)C(=O)O; NMeV = CN[C@H](C(=O)O)C(C)C

Columns and labels:
Assay in all cases: inhibition of tumour cell growth, NCI panel, 48 h
[1] = tested on: UACC-62 melanoma
[2] = tested on: SF-295 CNS
[3] = tested on: OVCAR-3 ovarian
[4] = tested on: SR leukemia
[5] = tested on: MDA-MB-435
[6] = tested on: LOX IMVI melanoma
[7] = tested on: NCI-H23 lung
[8] = tested on: NCI-H460 lung
[9] = tested on: HCC-2998 colon
[10] = tested on: KM12 colon

SMILES | GI50 [1] [µM] | TGI [1] | GI50 [2] [µM] | TGI [2] | GI50 [3] [µM] | TGI [3] | GI50 [4] [µM] | TGI [4] | GI50 [5] [µM] | TGI [5] [µM] | GI50 [6] [µM] | TGI [6] [µM] | GI50 [7] [µM] | TGI [7] [µM] | GI50 [8] [µM] | TGI [8] [µM] | GI50 [9] [µM] | TGI [9] [µM] | GI50 [10] [µM] | TGI [10] [µM]
C[C@H](N)C(=O)N1C[C@H](CCCB(O)O)[C@](N)(C(=O)O)C1 | > 100 | > 100 µM | > 100 | > 100 µM | > 100 | > 100 µM | > 100 | > 100 µM | > 100 | > 100 | > 100 | > 100 | > 100 | > 100 | > 100 | > 100 | > 100 | > 100 | > 100 | > 100
CCOC(=O)Nc1nc2c(C)cccc2s1 | 36 | > 100 µM | 27.2 | > 100 µM | 41.8 | > 100 µM | 73.3 | > 100 µM | 48.9 | > 100 | 49.7 | > 100 | 38.8 | > 100 | 70.8 | > 100 | 64.7 | > 100 | 56.8 | > 100
C=C1C[C@@]2(C)C(CC[C@]3(C)C2CC=C2C4CC(C)(C)C[C@@H](OC(=O)/C(C)=C\C)[C@]4(C(=O)O)CC[C@]23C)C(C)(C)C1=O (stereo not given in full) | 2.93 | 10.3 µM | 2.95 | 11.1 µM | 2.08 | 5 µM | 1.55 | 8.92 µM | 2.83 | 8.61 | – | – | 2.87 | 11.1 | 3.22 | 11 | 2.02 | 4.52 | 3.84 | 15.9
NS(=O)(=O)c1ccc(NC(=O)c2cccc3cc4ccccc4nc23)cc1 | – | > 100 µM | – | > 100 µM | – | > 100 µM | – | > 100 µM | – | > 100 | – | > 97.3 | – | > 100 | – | > 100 | – | > 100 | – | > 100
Cc1c(N=Cc2ccc(N(CCC#N)CCC#N)cc2)c(=O)n(-c2ccccc2)n1C | – | > 100 µM | – | 71.6 µM | – | > 100 µM | – | > 100 µM | – | > 100 | – | > 100 | – | > 100 | – | > 100 | – | > 100 | – | > 100
Nc1nc(-c2cccc([N+](=O)[O-])c2)cc(-c2cc(-c3cccc([N+](=O)[O-])c3)nc(N)n2)n1 | – | > 100 µM | – | > 100 µM | – | > 100 µM | – | > 100 µM | – | > 100 | – | > 100 | – | > 100 | – | > 100 | – | > 100 | – | > 100
OCc1ccc(N(CCN2CCCC2)Cc2ccc(F)cc2)cc1Cl | 13.9 | 29.1 µM | – | – | 19.5 | 36.6 µM | 16.1 | 44.8 µM | 15.9 | 32.8 | 15.6 | 31.5 | 32.4 | > 100 | 3.47 | 13.9 | 10.7 | 23.8 | 17.4 | 34.9
CCCN(CCSSCCNc1nc(N(C)O)nc(N(C)O)n1)c1nc(N(C)O)nc(N(C)O)n1 | 4.39 | 28.9 µM | 3.56 | 58.3 µM | 6.42 | > 100 µM | 2.71 | > 100 µM | 4.91 | > 100 | 6.63 | > 100 | 18 | > 100 | 3.87 | > 100 | 4.73 | > 100 | 6.25 | > 100
Cc1nc(C(N)=S)sc1C(=O)C/C(=N/N)C(=O)Nc1ccc(Cl)cc1 | – | > 100 µM | – | > 100 µM | – | > 100 µM | – | > 100 µM | – | > 100 | – | > 100 | – | > 100 | – | > 100 | – | > 100 | – | > 100
CN(C)CCCn1c2nc(=O)[nH]c(=O)c-2nc2cc(Cl)c(Cl)cc21 | 4.22 | 14.9 µM | – | – | 0.812 | 6.13 µM | 6.61 | 30.5 µM | 2.14 | 5.2 | 2.37 | 7.36 | 8.04 | 23.5 | 14.5 | > 100 | 12.5 | 27.9 | 8.2 | 26
NC1=Nc2cc(OCCCN3Cc4ccccc4C3)c(OCC3CC3)cc2C12CCCC2 | 1.9 | 3.87 µM | 1.64 | 3.42 µM | 2.69 | 8.68 µM | 1.94 | 5.02 µM | 1.8 | 3.66 | 1.51 | 2.91 | 3.61 | 12.9 | 2.02 | 4.67 | 1.62 | 3.08 | 4.04 | 15.5
Fc1ccc2[nH]cc(SSc3c[nH]c4ccc(F)cc34)c2c1 | 2.83 | 13.8 µM | 3.04 | 11.2 µM | 4.52 | 18.3 µM | 2.29 | 11.3 µM | 4.62 | 21.5 | 3.18 | 17.4 | 16.7 | 77.5 | 4.44 | 19.9 | 6.34 | 23.3 | 3.76 | 16.1
COc1ccccc1-c1cc(=O)c2ccc(OC)c(OC)c2o1 | – | > 100 µM | – | > 100 µM | – | > 100 µM | – | > 100 µM | – | > 100 | – | > 100 | – | > 100 | – | > 100 | – | > 100 | – | –
C=C1C(=O)O[C@H]2[C@H]1CC/C(Cn1cc(-c3cc(C)c(C)cc3C)nn1)=C\CC[C@@]1(C)O[C@@H]21 | 1.13 | 2.56 µM | 6.44 | 20.7 µM | 1.03 | 2.19 µM | 1.26 | 7.8 µM | 1.41 | 3.76 | 0.725 | 2.1 | 1.77 | 3.99 | 3.16 | 10.8 | 1.72 | 3.33 | 2.31 | 6.62
CC[C@H](C)[C@@H]1OC(=O)[C@@H](C)[C@@H](CC)NC(=O)[C@H](C)NC(=O)C(C)(C)C(=O)[C@H](C)NC(=O)[C@H](Cc2ccc(OC)cc2)N(C)C(=O)[C@H](C(C)C)N(C)C(=O)CNC(=O)[C@H](CC(C)C)N(C)C(=O)CNC1=O (cyclo(A[X56]G[NMeL]G[NMeV][NMeY](Me)[X32])) | 0.111 | 5.28 µM and 5.31 µM | 0.0102 | 0.657 µM and 0.0793 µM | 0.0304 | 0.197 µM and 0.307 µM | 0.063 | 1.06 µM and 0.6 µM | – | 2.47 | 0.0392 | – | 0.367 | 3.66 | – | – | – | 3.94 | 0.679 | 91.2
COc1cc(OC)c(C(=O)/C=C/c2cccc(OC(C)=O)c2)cc1CC=C(C)C | – | – | 11.9 | > 50 µM | 3.44 | 12.6 µM | 1.74 | 16.1 µM | 5.67 | 31.1 | 6.29 | 13.1 | 8.05 | 18.5 | 6.57 | 17.8 | 8.87 | 16.2 | 7.16 | 14.8
O=C1NN(c2ccccc2)C(=O)/C1=C/c1ccc(Br)o1 | 11.8 | 24.3 µM | – | 2.56 µM | 1.07 | 13.2 µM | 2.62 | 8.3 µM | 6.65 | 23.8 | 5.42 | 22.4 | 15.6 | 36.1 | 15.1 | 36 | – | – | 9.71 | 24
COc1ccc(OC)c2c(=S)c3ccccc3[nH]c12 | – | > 100 µM | – | > 100 µM | – | > 100 µM | – | > 100 µM | – | > 100 | – | > 100 | – | > 100 | – | > 85 | – | > 100 | – | > 100
COc1ccc2c(c1)C1(C(=O)N2)C(C#N)=C(c2ccccc2)Nc2c1c(-c1ccccc1)nn2-c1ccccc1 (stereo not given) | 5.36 | 18.2 µM | 8.86 | 21.1 µM | 1.95 | 3.39 µM | 3.08 | 8.65 µM | 2.16 | 5.29 | 1.81 | 3.51 | 2.51 | 7.51 | 1.98 | 3.75 | 3.51 | 12.5 | 2.66 | 7.26
CCNCCCn1c2c(c3ccc([N+](=O)[O-])cc3c1=O)C(=O)c1cc(OC)cnc1-2 | 0.0267 | 0.168 µM | 0.0421 | 0.496 µM | 0.0616 | 0.302 µM | – | 1.27 µM | 0.133 | 0.744 | 0.0265 | 0.131 | 0.0436 | 0.323 | 0.0321 | 0.376 | 0.151 | 0.66 | 0.197 | 0.505
C=C1C(=O)O[C@H]2[C@H]1CC/C(COC(=O)c1ccccc1)=C\CC[C@@]1(C)O[C@@H]21 | 1.44 | 3.13 µM | 3.83 | 16 µM | 0.482 | 1.74 µM | 0.35 | 86.8 µM | 1.34 | 3.24 | 1.32 | 2.74 | 1.82 | 4.16 | 2.22 | 6.16 | 2.35 | 4.95 | 2.57 | 8.42
COc1ccc2c(c1)/C(=N/OC(C)=O)c1c-2c(=O)[nH]c2ccccc12 | 16.6 | 30.4 µM | 18.1 | 48 µM | 16.5 | 36.3 µM | 6.63 | 33.1 µM | 17.3 | 34.5 | 14.8 | 29.4 | 2.34 | 16.2 | 59 | > 100 | 3.29 | 13.5 | 3.84 | 19.6
COc1ccc(-c2cc(=O)c3c(OC)c(OC)c(OC)c(OC)c3o2)c(OC)c1 | – | 33 µM | – | 46 µM | – | 53.7 µM | – | > 100 µM | – | 89.7 | – | 34.8 | – | 58.5 | – | > 100 | – | 46.6 | – | –
CC(=O)OC1Oc2ccccc2-c2oc(=O)c(-c3cc4ccccc4oc3=O)cc21 (stereo not given) | 17.4 | 35.1 µM | 18.6 | 41.3 µM | 19.1 | 46.6 µM | – | – | 22.3 | 79.6 | 14.9 | 29.6 | 24 | 52.4 | 27.8 | 91 | 57.7 | > 100 | 41.4 | > 100
CC1(C)CC2(C)CC1CC2NC(=O)CCN1CCOCC1 (stereo not given) | – | > 100 µM | – | > 100 µM | – | > 100 µM | – | > 100 µM | – | > 100 | – | – | – | > 100 | – | > 100 | – | > 100 | – | > 100
O=C1CS/C(=N\S(=O)(=O)c2ccc(N3N=C4c5ccccc5CC4C3c3ccc(Cl)cc3)cc2)N1c1ccccc1 (stereo not given) | 30.1 | 77.3 µM | 35.8 | 98.7 µM | 48.5 | > 100 µM | 11.4 | 28.1 µM | 30.6 | 88.8 | 23.4 | 49.1 | – | – | 19.7 | 48.9 | – | – | 22 | 58.6
O=C(Nc1cccc(-n2cc(-c3ccncc3)c(-c3ccc(O)c(Cl)c3)n2)c1)Nc1cccc(C(F)(F)F)c1 | 2.28 | 5.5 µM | 1.97 | 5.47 µM | – | – | 1.02 | 4.71 µM | 1.82 | 4.65 | 2.11 | 5.87 | 2.59 | 8.81 | 2.64 | – | 4.3 | 37.5 | 1.72 | 3.48
NC(CC1=CCC=CC1)C(=O)O (stereo not given) | – | > 100 µM | – | > 100 µM | – | > 100 µM | – | – | – | > 100 | – | > 100 | – | > 100 | – | > 100 | – | > 100 | – | > 100
